As usually defined, the IC50 is the concentration that gives 50% inhibition. Low values mean greater potency, high ones weaker potency.

Structures can show the parent of a compound that is named as a salt.

The target in one assay is SHP2 (Homo sapiens (Human), UniProt Q06124). The experiment in a line: SHP2 allosteric inhibition assay (DiFMUP prompt fluorescence). In kind it is biochemical. The settings on record: Table 1; 0.25 nM SHP2 with 0.5 μM peptide IRS1_pY1172(dPEG8)pY1222, substrate DiFMUP 100 μM.
Sequence of SHP2 (Q06124 whole entry): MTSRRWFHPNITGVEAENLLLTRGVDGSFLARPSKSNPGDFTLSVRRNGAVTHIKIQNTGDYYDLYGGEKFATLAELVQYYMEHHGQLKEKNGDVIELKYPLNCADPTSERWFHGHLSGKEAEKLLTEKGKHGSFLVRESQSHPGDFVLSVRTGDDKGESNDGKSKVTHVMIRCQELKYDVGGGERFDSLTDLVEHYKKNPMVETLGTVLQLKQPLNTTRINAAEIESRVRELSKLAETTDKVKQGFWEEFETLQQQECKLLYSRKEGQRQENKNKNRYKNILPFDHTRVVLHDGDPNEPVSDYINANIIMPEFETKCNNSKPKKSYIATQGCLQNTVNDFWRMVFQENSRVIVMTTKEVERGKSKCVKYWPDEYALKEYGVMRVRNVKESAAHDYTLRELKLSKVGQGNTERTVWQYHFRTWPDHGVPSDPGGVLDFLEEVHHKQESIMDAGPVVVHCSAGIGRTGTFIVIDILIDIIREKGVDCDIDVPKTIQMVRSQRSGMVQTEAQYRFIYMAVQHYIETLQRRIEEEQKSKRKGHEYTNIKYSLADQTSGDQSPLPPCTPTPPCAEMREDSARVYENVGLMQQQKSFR
The molecule `O=S(=O)(F)c1cccc2c1CCCN2c1n[nH]c2nc(N3CCCCC3)cnc12` [Compound 4A] came in with an IC50 of no less than 10000 nM. Same read-out and setting: then `CC1(CN)CCN(c2cnc3c(N4CCCc5c(OS(=O)(=O)F)cccc54)n[nH]c3n2)CC1` [Compound 3A], with less than 1000 nM. Same read-out and setting: then `O=S(=O)(F)Oc1ccc2c(c1)CCCN2c1n[nH]c2nc(N3CCCCC3)cnc12` [Compound 1A], with no less than 10000 nM.

Staying with this assay, now noted: Table 2; 0.25 nM SHP2 with 0.5 μM peptide IRS1_pY1172(dPEG8)pY1222, substrate DiFMUP 100 μM.
`NCC1CCCCN1C(=O)c1cnc2c(-c3cccc(Cl)c3F)n[nH]c2n1` (centres unmarked) [Compound 13B] registered an IC50 of no less than 10000 nM. On the same count and under the same terms, with `C[C@H]1CCN(c2n[nH]c3nc([C@H]4CC[C@H](CN)CC4)cnc23)c2ccc(C#N)cc21` [Compound 19B, (4S)-4-methyl-1-{6-[(1s,4s)-4-(aminomethyl)cyclohexyl]-1H-pyrazolo[3,4-b]pyrazin-3-yl}-1,2,3,4-tetrahydroquinoline-6-carbonitrile] the figure was 1000 to 10000 nM; with `Fc1c(Cl)cccc1-c1n[nH]c2nc(C3CCNCC3)cnc12` [Compound 2B], less than 1000 nM; with `CC(C)(CN)c1cnc2c(-c3cccc(Cl)c3F)n[nH]c2n1` [Compound 11B, 2-[3-(3-chloro-2-fluorophenyl)-1H-pyrazolo[3,4-b]pyrazin-6-yl]-2-methylpropan-1-amine], no less than 10000 nM. Still for that read-out and setting: with `CC(C)(CN)c1cnc2c(N3CCCc4ncccc43)n[nH]c2n1` [Compound 12B, 2-(3-(3,4-dihydro-1,5-naphthyridin-1(2H)-yl)-1H-pyrazolo[3,4-b]pyrazin-6-yl)-2-methylpropan-1-amine] the figure was no less than 10000 nM; with `NC(=O)C1(c2cnc3c(-c4cccc(Cl)c4F)n[nH]c3n2)CCNCC1` [Compound 3B], less than 1000 nM.

Molecule `NC1CCN(C(=O)c2cnc3c(-c4cccc(Cl)c4F)n[nH]c3n2)C1` (centres unmarked) [Compound 5B] displayed an IC50 of 1000 to 10000 nM.

In turn, `OCC1(c2cnc3c(-c4cccc(Cl)c4F)n[nH]c3n2)CCNCC1` [Compound 4B] registered an IC50 of less than 1000 nM. Still for that read-out and setting: with `NCc1ccn(Cc2cnc3c(-c4cccc(Cl)c4F)n[nH]c3n2)n1` [Compound 9B, (1-((3-(3-chloro-2-fluorophenyl)-1H-pyrazolo[3,4-b]pyrazin-6-yl)methyl)-1H-pyrazol-3-yl)methanamine] the figure was no less than 10000 nM; with `OC1(c2cnc3c(-c4cccc(Cl)c4F)n[nH]c3n2)CCNCC1` [Compound 8B], less than 1000 nM.

Staying with this assay, now noted: Table 3; 0.25 nM SHP2 with 0.5 μM peptide IRS1_pY1172(dPEG8)pY1222, substrate DiFMUP 100 μM.
In turn, `C[C@@H]1OCC2(CCN(c3nc4[nH]nc(-c5cccc6ncccc56)c4nc3CO)CC2)[C@@H]1N` [Compound 22C, (6-((3S,4S)-4-amino-3-methyl-2-oxa-8-azaspiro[4.5]decan-8-yl)-3-(quinolin-5-yl)-1H-pyrazolo[3,4-b]pyrazin-5-yl)methanol] gave an IC50 of less than 1000 nM. Still for that read-out and setting: then `C[C@@H]1OCC2(CCN(c3nc4[nH]nc(-c5ccc6occc6c5)c4nc3CO)CC2)[C@@H]1N` [Compound 24C], with less than 1000 nM; and `Cc1nc2c(N3CCCc4ncccc43)n[nH]c2nc1N1CCC2(CC1)CO[C@@H](C)[C@H]2N` [Compound 13C, (3S,4S)-8-(3-(3,4-dihydro-1,5-naphthyridin-1(2H)-yl)-5-methyl-1H-pyrazolo[3,4-b]pyrazin-6-yl)-3-methyl-2-oxa-8-azaspiro[4.5]decan-4-amine], with less than 1000 nM; and `CC1(CN)CCN(c2nc3[nH]nc(-c4cccc(Cl)c4F)c3nc2C(N)=O)CC1` [Compound 2C], with less than 1000 nM. `CC1(CN)CCN(c2nc3[nH]nc(N4CCCc5ncccc54)c3nc2C(N)=O)CC1` [Compound 8C, 6-[4-(aminomethyl)-4-methylpiperidin-1-yl]-3-(1,2,3,4-tetrahydro-1,5-naphthyridin-1-yl)-1H-pyrazolo[3,4-b]pyrazine-5-carboxamide]: the IC50 was less than 1000 nM. Still for that read-out and setting: with `COC(=O)c1nc2c(N3CCCc4ncccc43)n[nH]c2nc1N1CCC(C)(CN)CC1` [Compound 9C, methyl 6-[4-(aminomethyl)-4-methylpiperidin-1-yl]-3-(1,2,3,4-tetrahydro-1,5-naphthyridin-1-yl)-1H-pyrazolo[3,4-b]pyrazine-5-carboxylate] the figure was less than 1000 nM; with `CC1(N)CCN(c2nc3[nH]nc(-c4cccc(Cl)c4F)c3nc2C(N)=O)CC1` [Compound 3C, 6-(4-amino-4-methylpiperidin-1-yl)-3-(3-chloro-2-fluorophenyl)-1H-pyrazolo[3,4-b]pyrazine-5-carboxamide], less than 1000 nM. Still for that read-out and setting: then `C[C@@H]1OCC2(CCN(c3nc4[nH]nc(N5CC[C@H](C)c6cc(C#N)ccc65)c4nc3CO)CC2)[C@@H]1N` [Compound 17C], with less than 1000 nM; and `COc1nc2c(N3CCCc4ncccc43)n[nH]c2nc1N1CCC2(CC1)CO[C@@H](C)[C@H]2N` [Compound 10C, (3S,4S)-8-[5-methoxy-3-(1,2,3,4-tetrahydro-1,5-naphthyridin-1-yl)-1H-pyrazolo[3,4-b]pyrazin-6-yl]-3-methyl-2-oxa-8-azaspiro[4.5]decan-4-amine dihydrochloride], with less than 1000 nM; and `CC1(CN)CCN(c2nc3[nH]nc(-c4cccc(Cl)c4F)c3nc2C#N)CC1` [Compound 1C], with less than 1000 nM.

In turn, `CC1(N)CCN(c2nc3[nH]nc(-c4cccc(Cl)c4F)c3nc2C(=O)O)CC1` [Compound 4C, 6-(4-amino-4-methylpiperidin-1-yl)-3-(3-chloro-2-fluorophenyl)-1H-pyrazolo[3,4-b]pyrazine-5-carboxylic Acid] gave an IC50 of 1000 to 10000 nM. The same measure, in the same setting: then `CC1(CN)CCN(c2nc3[nH]nc(N4CCCc5c4cccc5S(C)(=O)=O)c3nc2CO)CC1` [Compound 16C], with less than 1000 nM; and `COC1CC(N2CCN(c3n[nH]c4nc(N5CCC6(CC5)CO[C@@H](C)[C@H]6N)c(CO)nc34)c3ccc(C#N)cc32)C1` (some centres unmarked) [Compound 21C], with less than 1000 nM; and `C[C@@H]1OCC2(CCN(c3nc4[nH]nc(N5CCCc6ncccc65)c4nc3C#N)CC2)[C@@H]1N` [Compound 12C, 6-[(3S,4S)-4-amino-3-methyl-2-oxa-8-azaspiro[4.5]decan-8-yl]-3-(1,2,3,4-tetrahydro-1,5-naphthyridin-1-yl)-1H-pyrazolo[3,4-b]pyrazine-5-carbonitrile], with less than 1000 nM. On the same count and under the same terms, with `CC(=O)N1CCN(c2n[nH]c3nc(N4CCC5(CC4)CO[C@@H](C)[C@H]5N)c(CO)nc23)c2ccccc21` [Compound 23C] the figure was less than 1000 nM. Still for that read-out and setting: with `COCc1nc2c(N3CCCc4ncccc43)n[nH]c2nc1N1CCC(C)(CN)CC1` [Compound 15C] the figure was less than 1000 nM; with `C[C@@H]1OCC2(CCN(c3nc4[nH]nc(N5CCCc6nc(-c7ccn[nH]7)ccc65)c4nc3CO)CC2)[C@@H]1N` [Compound 20C, (3-(6-(1H-pyrazol-5-yl)-3,4-dihydro-1,5-naphthyridin-1(2H)-yl)-6-((3S,4S)-4-amino-3-methyl-2-oxa-8-azaspiro[4.5]decan-8-yl)-1H-pyrazolo[3,4-b]pyrazin-5-yl)methanol], less than 1000 nM.

Still in this assay, the particulars now being: Table 4; 0.25 nM SHP2 with 0.5 μM peptide IRS1_pY1172(dPEG8)pY1222, substrate DiFMUP 100 μM.
`CN(c1cnc2c(-c3cccc(Cl)c3F)n[nH]c2n1)c1ncccc1CN` [Compound 1D, N-(3-(aminomethyl)pyridin-2-yl)-3-(3-chloro-2-fluorophenyl)-N-methyl-1H-pyrazolo[3,4-b]pyrazin-6-amine] yielded an IC50 of less than 1000 nM. `CN(c1cnc2c(N3CCCc4ncccc43)n[nH]c2n1)c1ncccc1CCN` [Compound 3D, N-(3-(2-aminoethyl)pyridin-2-yl)-3-(3,4-dihydro-1,5-naphthyridin-1(2H)-yl)-N-methyl-1H-pyrazolo[3,4-b]pyrazin-6-amine] returned an IC50 of 1000 to 10000 nM.

For the origin of these results see patent US12138263B2, “Pyrazolo[3,4-b]pyrazine SHP2 phosphatase inhibitors and methods of use thereof” (Relay Therapeutics, Inc., priority 2018, dated 2024).
